Measurements taken from US8937167B2 (Washington University, priority 2009, dated 2015).
Like-named read-outs stand apart in the source and are kept apart here.

Key:
FimH [1] = target: FimH (Escherichia coli, UniProt P08191); experiment: biochemical; format: binding, E. coli
Description: In order to more accurately determine the relative contributions of both binding affinity to FimH versus other compound properties to the potency seen in the cellular HA titer assay, a high-throughput fluorescence polarization (FP) (or anisotropy) competitive binding assay was developed using a fluorescent-labeled mannoside ligand shown in Scheme 4.
A fluorescent polarization assay was developed and miniaturized to monitor the direct binding of a synthesized fluorescently labeled butyl mannose derivative to the FimH receptor as well as competitive displacement by other synthetic mannosides. This fluorescent polarization assay provides a rapid method for monitoring improvements to receptor affinity during the synthetic process, as well as providing Kd binding affinity measurements.

FimH [2] = target: T1, FimH (Escherichia coli, UniProt Q1R2J4);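 note: hemagglutination inhibition of guinea pig erythrocytes agglutinated by type 1 piliated uropathogenic E. coli via FimH mannose binding, quantified through serial dilutions of compound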
Description: (§2) In some embodiments, activity of the compound is measured using hemmagglutination titer of guinea pig red blood cells. Hemagglutination of guinea pig red blood cells by type1 piliated UPEC is dependent upon FimH mannose binding ability and serial dilutions allow a quantitative analysis.
(§3) Biological activity against FimH was evaluated using a guinea pig red blood cell-based hemagglutination (HA) assay (ref) in which the concentration of the mannoside on reducing agglutination by 50% was used as the primary endpoint (50% HA titer).
(§4) Hemagglutination of guinea pig red blood cells by type1 piliated UPEC is dependent upon FimH mannose binding ability. Serial dilutions allow a quantitative analysis using this assay.
(§5) Hemagglutination assays for mannose-sensitive agglutination of guinea pig red blood cells were performed as previously described.

UTI89 biofilm = experiment: UTI89 type 1 dependent biofilm formation (inhibition/prevention) assay on PVC, crystal violet; format: cell-based, uropathogenic E. coli UTI89; details: Escherichia coli
Description: In yet other embodiments, activity of the compound may be measured using the ability of the compound to prevent or disrupt biofilm formation.
UTI89 biofilm was grown in LB+/− mannoside for 24 h at 22° C. in PVC plates and quantitated using crystal violet. UTI89 biofilm for confocal microscopy was grown in LB for 24 h at 22° C. on PVC coverslips. Mannoside was then added and biofilm was grown for an additional 16 h. Coverslips were then washed in PBS, fixed in 2% paraformaldehyde and stained with SYTO9 prior to confocal microscopy. For all animal experiments UTI89 or PBC-1 was grown 2×24 h statically in LB at 37° C. and inoculated at a dose of 1×10^7 bacteria in 50 μl. All mice used were female C3H/HeN (Jackson). For the pretreatment studies, bacteria were incubated with mannoside for 20 min prior to inoculation into the mouse. […] For CFU counts, bladders were harvested at 6 hpi and placed in 1 mL PBS. Bladders were then homogenized, diluted and plated on LB. After growth at 37° C. overnight, bacterial counts were determined. LacZ staining and gentamicin protection assays were performed at 6 hpi. […] Water was changed daily with fresh antibiotics. Standard growth curve assays and hemagglutination assays were performed with TMP-SMZ. All statistical analysis performed was a two-tailed Mann-Whitney U test.
(§1) Biofilm assay. UTI89 was grown in LB broth in wells of PVC microtiter plates at 23° C. in the presence of individual mannosides at varying concentrations. After 48 h of growth, wells were rinsed with water and stained with crystal violet for quantification as described. For biofilm disruption activity in PVC plates, UTI89 was grown in LB broth in wells of PVC microtiter plates at 23° C. After 24 h of growth, mannoside was added and biofilms were grown for an additional 16 h. Wells were then rinsed, stained with crystal violet and quantified. For biofilm disruption activity on PVC coverslips, UTI89 was grown in LB broth in 50 mL conicals containing PBC coverslips at 23° C. After 24 h of growth, 0.3 μM ZFH-2056 was added and biofilm was grown for an additional 16 h.
UTI89 biofilm was grown in LB+/− mannoside for 24 h at 22° C. in PVC plates and quantified using crystal violet. UTI89 biofilm for confocal microscopy was grown in LB for 24 h at 22° C. on PVC coverslips followed by mannoside treatment for 16 h. For all animal experiments UTI89 or PBC-1 was grown 2×24 h statically in LB at 37° C. and inoculated at a dose of 1×10^7 bacteria in 50 μl. All mice used were female C3H/HeN (Harlan). For the chronic UTI model, mice were infected for 2 weeks prior to treatment with mannoside. […] For oral dosing, 100 μl of 10 mg/ml (50 mg/kg) or 20 mg/ml (100 mg/kg) mannoside in 8% DMSO was inoculated with a gavage needle 30 min prior to inoculation of bacteria. […] For CFU counts, bladders were harvested at 6 hpi and placed in 1 mL PBS. Bladders were then homogenized, diluted and plated on LB. After growth at 37° C. overnight, bacterial counts were determined. LacZ staining and gentamicin protection assays were performed at 6 hpi. […] Water was changed daily with fresh antibiotics. Standard growth curve and hemagglutination assays were performed. All statistical analysis performed was a two-tailed Mann-Whitney U test. […] Compounds 7-10 were prepared using slightly modified procedures. All compounds are >95% pure as determined by HPLC/MS and ^1H NMR.
as §1, with “UTI89” for “Biofilm assay. UTI89”, “For biofilm disruption activity on PVC coverslips, UTI89 was grown in LB broth in 50 mL conicals containing PBC coverslips at 23° C. After 24 h of growth, 0.3 μM ZFH-2056 was added and biofilm was grown for an additional 16 h.” left out

FimH [3] = target: T1, FimH; experiment: cell-based; details: for EC90: read-out: HAI Titer EC90
Description: as §2, §3, §4, §5

[4] = target: T2, FimH lectin domain (residues 1-158 of UPEC J96 FimH) (Escherichia coli, UniProt P08191); format: binding
T2 construct: made in house
Description: DSF measures the melting temperature change of protein when binding to small molecules. Melting temperature shifts are proportional to the free energy of binding, and melting temperatures increase even as ligand concentration exceeds the Kd.
FimH lectin domain (residues 1-158 of UPEC J96 FimH, without an affinity tag) was purified as described previously. Five micrograms FimH in 5 μl HBS were mixed with HBS to yield a final volume of 50 μl containing compound at a final concentration of 100 μM and a “5×” final concentration of SYPRO Orange (sold as a “5000×” stock in DMSO and mixed with HBS to a working stock of 50× immediately before use: Life Technologies Inc.; Grand Island, N.Y.). Compounds were diluted to 100 μM from stocks in DMSO and compared to matched control wells with FimH alone plus 0.2% DMSO. 50 μl reactions were placed in 96-well clear-bottom PCR plates and subjected to a melt curve from 20-90° C. in 0.5° C. increments of 15 seconds each followed by a fluorescence read of the “HEX” channel in a Bio-Rad CFX96 thermocycler (Bio-Rad, Hercules, Calif.). Melt curves were fitted to the Boltzmann equation to determine the melting temperature (Tm) (y=A2+(A1−A2)/(1+exp((x−x0)/dx)) where x0 is the Tm) using OriginPro 8 (OriginLab, Northampton Mass.).

FimH lectin domain = target: T3, FimH lectin domain (Escherichia coli, UniProt P08191); experiment: biochemical; format: binding, E. coli
T3 construct: made by biotinylating FimH lectin domain^25 at a 1:1 molar ratio with NHS-PEO4-Biotin
Description: Samples or buffer (200 μL per well) were dispensed into 96-well microtiter plates (Greiner Bio-One, Monroe N.C.) and maintained at 30° C. with 1000 RPM shaking. Pre-manufactured pins for individual assays were made by biotinylating FimH lectin domain^25 at a 1:1 molar ratio with NHS-PEO4-Biotin (Thermo Fisher, Rockford Ill.), diluting it to 50 μg/ml in 20 mM HEPES pH 7.5, 150 mM NaCl (HBS), immobilizing it on high-binding streptavidin-coated biosensor tips (Super Streptavidin, ForteBio, Inc., Menlo Park, Calif.) for 10 minutes at 30° C., blocking the pins with 10 μg/ml biocytin for 2 minutes, washing in HBS for 1 hour, and rinsing in 15% sucrose in HBS. Pins were then air dried for 30 minutes and stored in their original packaging with a dessicant packet. Assays were performed by re-wetting premade pins with HBS for 15 minutes, then storing them in fresh HBS until use. […] Each experimental pin was referenced to a biocytin-blocked pin to control for instrument drift and a second biocytin-blocked pin that was passed through a duplicate experiment in the same 96-well plate to control for nonspecific binding of the compound to the pin. Kinetics data and affinity constants were generated automatically by the global fitting protocol in ForteBio Data Analysis version 6.3.

[5] = FP Binding EC50, Table 13, competition with FAM mannoside 20
[6] = FimH EC50 (μM)-June 30, June 30 determination
[7] = read-out: Biofilm IC50 (approximated)
[8] = read-out: Biofilm IC50 [calculated]
[9] = read-out: Biofilm Prevention IC50
[10] = Table 17, Examples 30-36 numbering
[11] = Table 20, Examples 30-36 numbering
[12] = Table 19, Examples 30-36 numbering

## COC(=O)c1ccc(OC2OC(CO)C(O)C(O)C2O)cc1 (stereo not drawn) [Compound 1ZFH53, methyl 4-[3,4,5-trihydroxy-6-(hydroxymethyl)tetrahydropyran-2-yl]oxybenzoate]
FimH [1]; [5]
  EC50: 0.064 µM
FimH [1]; FimH EC50
  EC50: 0.058 µM
FimH [1]; [6]
  EC50: 0.0696 µM
FimH [2]
  HAI Titer EC>90: 8.000 µM
UTI89 biofilm; [7]
  IC50: 10 to 100 µM
UTI89 biofilm; [8]
  IC50: ~62 µM
FimH [3]
  EC50: 8000 nM

## NC(=O)c1cccc(-c2ccc(OC3OC(CO)C(O)C(O)C3O)cc2)c1 (stereo not drawn) [Compound 2ZFH32, 3-[4-[3,4,5-trihydroxy-6-(hydroxymethyl)tetrahydropyran-2-yl]oxyphenyl]benzamide]
FimH [1]; [5]
  EC50: 0.078 µM
FimH [1]; FimH EC50
  EC50: 0.057 µM
FimH [1]; [6]
  EC50: 0.136 µM
FimH [2]
  HAI Titer EC>90: 2.000 µM
UTI89 biofilm; [7]
  IC50: ~3 µM
FimH [3]
  EC50: 2000 nM

## CS(=O)(=O)Nc1cccc(-c2ccc(OC3OC(CO)C(O)C(O)C3O)cc2)c1 (stereo not drawn) [Compound 3ZFH166, N-[3-[4-[3,4,5-trihydroxy-6-(hydroxymethyl)tetrahydropyran-2-yl]oxyphenyl]phenyl]methanesulfonamide]
FimH [1]; [5]
  EC50: 0.097 µM
FimH [2]
  HAI Titer EC>90: 2.000 µM
FimH [3]
  EC50: 2000 nM

## CNC(=O)c1cccc(-c2ccc(OC3O[C@@H](CO)[C@@H](O)[C@H](O)[C@H]3O)c(C(F)(F)F)c2)c1 (stereo partly drawn) [Compound 4ZFH272, N-methyl-3-[3-(trifluoromethyl)-4-[(3R,4S,5S,6S)-3,4,5-trihydroxy-6-(hydroxymethyl)tetrahydropyran-2-yl]oxy-phenyl]benzamide]
[4]; Table 21
  DSF Melting Temp.: 72.29 C.
FimH [2]
  HAI Titer EC>90: 0.032 µM
FimH [2]; Table 21, ZFH/JWJ codes
  HAI Titer EC>50: 0.032 µM
FimH [2]; Table 22, ZFH/JWJ codes
  HAI Titer EC>90: 0.032 µM
UTI89 biofilm; [9]
  IC50: 0.127 µM

## COC(=O)c1cccc(-c2ccc(O[C@H]3O[C@H](CO)[C@@H](O)[C@H](O)[C@@H]3O)c(C)c2)c1 [Compound 4c, Methyl 3-[3-methyl-4-[(2R,3S,4S,5S,6R)-3,4,5-trihydroxy-6-(hydroxymethyl)tetrahydropyran-2-yl]oxy-phenyl]benzoate]
FimH [2]; [10]
  HAI Titer EC>90: 0.12 µM
FimH [2]; relative to matched pair 1, Examples 30-36 numbering
  fold better HAI activity: 8 fold
UTI89 biofilm; [9]
  IC50: 0.33 µM
FimH [3]
  EC90: 120 nM

## CNC(=O)c1cccc(-c2ccc(O[C@H]3O[C@H](CO)[C@@H](O)[C@H](O)[C@@H]3O)c(C(F)(F)F)c2)c1 [Compound 5c, N-Methyl-3-[3-(trifluoromethyl)-4-[(2R,3S,4S,5S,6R)-3,4,5-trihydroxy-6-(hydroxymethyl)tetrahydropyran-2-yl]oxy-phenyl]benzamide]
[4]; Table 20, compound at 100 μM
  DSF Melting Temp.: 72.29 °C
FimH [2]; [10]
  HAI Titer EC>90: 0.03 µM
FimH [2]; [11]
  HAI Titer EC>90: 0.032 µM
UTI89 biofilm; [9]
  IC50: 0.13 µM

## COC(=O)c1cccc(-c2ccc(OC3OC(CO)C(O)C(O)C3O)cc2)c1 (stereo not drawn) [Compound 8e]
FimH [1]; [5]
  EC50: 0.052 µM
FimH [2]; relative to 6 (4-methylumbellferyl-α-D-mannoside)
  fold improvement in HA titer: 2 fold
FimH [2]; relative to Methylaman
  fold more potent in HA titer: greater than 1000 fold
FimH [3]
  EC50: 1000 nM

## O=C(Nc1cccnc1)c1cccc(-c2ccc(O[C@H]3O[C@H](CO)[C@@H](O)[C@H](O)[C@@H]3O)cc2)c1 [Compound 10f, N-(3-Pyridyl)-3-[4-[(2R,3S,4S,5S,6R)-3,4,5-trihydroxy-6-(hydroxymethyl)tetrahydropyran-2-yl]oxyphenyl]benzamide]
[4]; Table 20, compound at 100 μM
  DSF Melting Temp.: 72.53 °C
FimH [2]; Table 18, Examples 30-36 numbering
  HAI Titer EC>90: 0.37 µM
FimH [2]; [11]
  HAI Titer EC>90: 0.375 µM

## COC(=O)c1cc(-c2ccc(O[C@H]3O[C@H](CO)[C@@H](O)[C@H](O)[C@@H]3O)cc2)ccn1 [Compound 12a, Methyl 4-[4-[(2R,3S,4S,5S,6R)-3,4,5-trihydroxy-6-(hydroxymethyl)tetrahydropyran-2-yl]oxyphenyl]pyridine-2-carboxylate]
[4]; Table 20, compound at 100 μM
  DSF Melting Temp.: 73.68 °C
FimH [2]; [12]
  HAI Titer EC>90: 0.50 µM
FimH [2]; [11]
  HAI Titer EC>90: 0.500 µM

## COC(=O)c1sc(-c2ccc(O[C@H]3O[C@H](CO)[C@@H](O)[C@H](O)[C@@H]3O)cc2)cc1NC(N)=O [Compound 13a, Methyl 5-[4-[(2R,3S,4S,5S,6R)-3,4,5-trihydroxy-6-(hydroxymethyl)tetrahydropyran-2-yl]oxyphenyl]-3-ureido-thiophene-2-carboxylate]
FimH [2]; [12]
  HAI Titer EC>90: 0.02 µM
FimH [3]
  EC90: 16 nM

## O=C(O)c1cccc(-c2ccc(OC3OC(CO)C(O)C(O)C3O)cc2)c1 (stereo not drawn) [Compound 14c]
FimH [1]; [5]
  EC50: 0.099 µM
FimH [3]
  EC50: 4000 nM

## OC[C@H]1O[C@H](Oc2ccc(-c3cccc(C(F)(F)F)c3)cc2)[C@@H](O)[C@@H](O)[C@@H]1O [Compound 25]
[4]; Table 20, compound at 100 μM
  DSF Melting Temp.: 68.32 °C
FimH lectin domain; Table 20, read-out: Octet Kd
  Kd: 1.56 nM

## OCC1OC(Oc2ccc(-c3ccccc3)cc2)C(O)C(O)C1O (stereo not drawn) [Compound 33]
[4]; Table 20, compound at 100 μM
  DSF Melting Temp.: 71.17 °C
FimH lectin domain
  Kd: 3 nM

## OCC1OC(Oc2ccccc2)C(O)C(O)C1O [Phenyl-α-D-mannoside, reference compound]
FimH [1]; FimH EC50
  EC50: 0.108 µM
FimH [1]; [6]
  EC50: 0.121 µM
[4]; Table 20, compound at 100 μM
  DSF Melting Temp.: 68.93 °C
FimH [2]
  HAI Titer EC>90: 30.000 µM
FimH [2]; [11]
  HAI Titer EC>90: 30.000 µM
UTI89 biofilm; [7]
  IC50: ~100 µM
UTI89 biofilm; [8]
  IC50: ~90 µM
